Laboratory results from patent US20100035871A1, “BENZOXAZINE DERIVATIVES AND USES THEREOF” (priority 2006, published 2010).
Like-named read-outs stand apart in the source and are kept apart here.

Columns and labels:
[1] = biological target: T1, human 5-HT2C receptor (Homo sapiens, UniProt P28335); assay: 5-HT2C receptor binding, [125I]DOI displacement, membranes of transfected CHO cells
T1 construct: expressed in transfected cells; host or cells: CHO (Chinese Hamster Ovary) cells; membrane preparation
T1 sequence (P28335 33-458): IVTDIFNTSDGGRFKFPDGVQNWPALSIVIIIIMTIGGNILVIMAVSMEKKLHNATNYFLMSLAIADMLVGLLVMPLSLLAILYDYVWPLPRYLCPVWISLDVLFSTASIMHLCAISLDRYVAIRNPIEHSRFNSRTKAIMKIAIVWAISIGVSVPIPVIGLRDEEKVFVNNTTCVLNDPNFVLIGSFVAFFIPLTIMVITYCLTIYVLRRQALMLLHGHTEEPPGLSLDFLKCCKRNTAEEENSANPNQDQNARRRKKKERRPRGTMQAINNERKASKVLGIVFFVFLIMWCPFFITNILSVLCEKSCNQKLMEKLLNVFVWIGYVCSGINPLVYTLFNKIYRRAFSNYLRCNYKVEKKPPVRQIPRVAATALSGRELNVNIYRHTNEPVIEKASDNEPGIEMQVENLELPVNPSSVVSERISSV

[2] = biological target: T1, human 5-HT2C receptor; assay: 5-HT2C receptor-stimulated calcium mobilization (FLIPR) in CHO cells; assay type: cell-based; settings: for Emax: CHO, read-out: 5-HT2C Function EMax (%); for EC50: calcium mobilization, CHO cells, read-out: 5-HT2C Function EC50
[3] = read-out: 5-HT2C Binding Ki avg

Row | SMILES | Ki [1, 3] | Emax [2] | EC50 [2] | 5-HT2C Binding, % @1 μM ([1]; @1 μM) | Ki ([1]; reference compounds, value (95% confidence interval), [125I]DOI binding, read-out: Ki) | Kd ([1]; saturation binding with increasing concentrations of [125I] DOI, read-out: dissociation constant, KD)
1 | COc1ccccc1-c1cccc2c1OC(CN)CN2C (racemic) [Example 1, 1-[8-(2-Methoxyphenyl)-4-methyl-3,4-dihydro-2H-1,4-benzoxazin-2-yl]methanamine] | 46.5 nM | 60% | 49 nM | – | – | –
2 | Cc1cc(Cl)ccc1-c1cccc2c1OC(CN)CN2C (racemic) [Example 2, 1-[8-(4-Chloro-2-methylphenyl)-4-methyl-3,4-dihydro-2H-1,4-benzoxazin-2-yl]methanamine] | 14.8 nM | 70% | 280 nM | – | – | –
3 | CN1CC(CN)Oc2c(-c3ccc(Cl)cc3Cl)cccc21 (racemic) [Example 3, 1-[8-(2,4-Dichlorophenyl)-4-methyl-3,4-dihydro-2H-1,4-benzoxazin-2-yl]methanamine] | 13.1 nM | 70% | 122 nM | – | – | –
4 | CN1CC(CN)Oc2c(-c3ccccc3C(F)(F)F)cccc21 (racemic) [Example 4, 1-{4-Methyl-8-[2-(trifluoromethyl)phenyl]-3,4-dihydro-2H-1,4-benzoxazin-2-yl}methanamine] | 8.6 nM | 70% | 62 nM | – | – | –
5 | COc1ccc(-c2cccc3c2OC(CN)CN3C)c(C)c1 (racemic) [Example 5, 1-[8-(4-Methoxy-2-methylphenyl)-4-methyl-3,4-dihydro-2H-1,4-benzoxazin-2-yl]methanamine] | 10.4 nM | 80% | 20 nM | – | – | –
6 | COc1ccc(-c2cccc3c2OC(CN)CN3C)cc1 (racemic) [Example 6, 1-[8-(4-Methoxyphenyl)-4-methyl-3,4-dihydro-2H-1,4-benzoxazin-2-yl]methanamine] | 12.1 nM | 80% | 70 nM | – | – | –
7 | CN1CC(CN)Oc2c(-c3ccccc3F)cccc21 (racemic) [Example 7, 1-[8-(2-Fluorophenyl)-4-methyl-3,4-dihydro-2H-1,4-benzoxazin-2-yl]methanamine] | 19.5 nM | 60% | 72 nM | – | – | –
8 | Cc1ccccc1-c1cccc2c1OC(CN)CN2C (racemic) [Example 8, 1-[4-Methyl-8-(2-methylphenyl)-3,4-dihydro-2H-1,4-benzoxazin-2-yl]methanamine] | 26.8 nM | 70% | 82 nM | – | – | –
9 | NCC1CNc2cc(F)cc(-c3c(Cl)cccc3Cl)c2O1 (racemic) [Example 10, 1-[8-(2,6-Dichlorophenyl)-6-fluoro-3,4-dihydro-2H-1,4-benzoxazin-2-yl]methanamine] | 0.9 nM | 70% | 5 nM | – | – | –
10 | CN1CC(CN)Oc2c(-c3ccccc3Cl)cccc21 (racemic) [Example 11, 1-[8-(2-Chlorophenyl)-4-methyl-3,4-dihydro-2H-1,4-benzoxazin-2-yl]methanamine] | 9.2 nM | 70% | 37 nM | – | – | –
11 | NCC1CN(CC2CC2)c2cccc(-c3ccccc3Cl)c2O1 (racemic) [Example 12, 1-[8-(2-Chlorophenyl)-4-(cyclopropylmethyl)-3,4-dihydro-2H-1,4-benzoxazin-2-yl]methanamine] | 22.7 nM | 40% | 166 nM | – | – | –
12 | CN1CC(CN)Oc2c(-c3cc(Cl)ccc3Cl)cccc21 (racemic) [Example 13, 1-[8-(2,5-Dichlorophenyl)-4-methyl-3,4-dihydro-2H-1,4-benzoxazin-2-yl]methanamine] | 12.8 nM | 70% | 131 nM | – | – | –
13 | NCC1CNc2cccc(-c3cc(Cl)ccc3Cl)c2O1 (racemic) [Example 14, 1-[8-(2,5-Dichlorophenyl)-3,4-dihydro-2H-1,4-benzoxazin-2-yl]methanamine] | 6.4 nM | 60% | 12 nM | – | – | –
14 | NCC1CNc2cccc(-c3ccc(Cl)cc3Cl)c2O1 (racemic) [Example 15, 1-[8-(2,4-Dichlorophenyl)-3,4-dihydro-2H-1,4-benzoxazin-2-yl]methanamine] | 15.9 nM | 70% | 8 nM | – | – | –
15 | NCC1CNc2cccc(-c3ccccc3Cl)c2O1 (racemic) [Example 16, 1-[8-(2-Chlorophenyl)-3,4-dihydro-2H-1,4-benzoxazin-2-yl]methanamine] | 14 nM | 70% | 3 nM | – | – | –
16 | Cc1ccccc1-c1cccc2c1OC(CN)CN2 (racemic) [Example 17, 1-[8-(2-Methylphenyl)-3,4-dihydro-2H-1,4-benzoxazin-2-yl]methanamine] | 31 nM | 72% | 101 nM | – | – | –
17 | NCC1CNc2cccc(-c3ccc(Cl)cc3C(F)(F)F)c2O1 (racemic) [Example 18, 1-{8-[4-Chloro-2-(trifluoromethyl)phenyl]-3,4-dihydro-2H-1,4-benzoxazin-2-yl}methanamine] | 7.9 nM | 56% | 109 nM | – | – | –
18 | Cc1cc(Cl)ccc1-c1cccc2c1OC(CN)CN2 (racemic) [Example 20, 1-[8-(4-chloro-2-methylphenyl)-3,4-dihydro-2H-1,4-benzoxazin-2-yl]methanamine] | 19.5 nM | 75% | 285 nM | – | – | –

Row | SMILES | Ki [1, 3] | Emax [2] | EC50 [2] | 5-HT2C Binding, % @1 μM ([1]; @1 μM) | Ki ([1]; reference compounds, value (95% confidence interval), [125I]DOI binding, read-out: Ki) | Kd ([1]; saturation binding with increasing concentrations of [125I] DOI, read-out: dissociation constant, KD)
19 | NCC1CNc2cccc(-c3ccccc3C(F)(F)F)c2O1 (racemic) [Example 22, 1-{8-[2-(Trifluoromethyl)phenyl]-3,4-dihydro-2H-1,4-benzoxazin-2-yl}methanamine] | 7.2 nM | 72% | 39 nM | – | – | –
20 | NCC1CNc2cccc(-c3ccc(C(F)(F)F)cc3C(F)(F)F)c2O1 (racemic) [Example 23, 1-{8-[2,4-Bis(trifluoromethyl)phenyl]-3,4-dihydro-2H-1,4-benzoxazin-2-yl}methanamine] | 39.5 nM | 79% | 367 nM | – | – | –
21 | COc1ccc(-c2cccc3c2OC(CN)CN3)c(C)c1 (racemic) [Example 24, 1-[8-(4-Methoxy-2-methylphenyl)-3,4-dihydro-2H-1,4-benzoxazin-2-yl]methanamine] | 14.9 nM | 75% | 25 nM | – | – | –
22 | COc1ccc(-c2cc(Cl)cc3c2NC(CN)CO3)c(C)c1 (racemic) [Example 27, 1-[7-chloro-5-(4-methoxy-2-methylphenyl)-3,4-dihydro-2H-1,4-benzoxazin-3-yl]methanamine] | 53.2 nM | 47% | 1290 nM | – | – | –
23 | Cc1ccc(-c2cc(Cl)cc3c2NC(CN)CO3)c(C(F)(F)F)c1 (racemic) [Example 31, 1-{7-chloro-5-[4-methyl-2-(trifluoromethyl)phenyl]-3,4-dihydro-2H-1,4-benzoxazin-3-yl}methanamine] | 30.5 nM | 60% | 876 nM | – | – | –
24 | COc1ccc(-c2cc(Cl)cc3c2NC(CN)CO3)c(Cl)c1 (racemic) [Example 32, 1-[7-chloro-5-(2-chloro-4-methoxyphenyl)-3,4-dihydro-2H-1,4-benzoxazin-3-yl]methanamine] | 29.5 nM | 57% | 1010 nM | – | – | –
25 | NCC1COc2cc(Cl)cc(-c3ccccc3Cl)c2N1 (racemic) [Example 36, 1-[7-chloro-5-(2-chlorophenyl)-3,4-dihydro-2H-1,4-benzoxazin-3-yl]methanamine] | 46.8 nM | 53% | 845 nM | – | – | –
26 | NCC1COc2cc(F)cc(-c3ccccc3C(F)(F)F)c2N1 (racemic) [Example 55, 1-{7-fluoro-5-[2-(trifluoromethyl)phenyl]-3,4-dihydro-2H-1,4-benzoxazin-3-yl}methanamine] | 19.3 nM | 54% | 331 nM | – | – | –
27 | COc1ccc(-c2cc(F)cc3c2NC(CN)CO3)c(Cl)c1 (racemic) [Example 59, 1-[5-(2-chloro-4-methoxyphenyl)-7-fluoro-3,4-dihydro-2H-1,4-benzoxazin-3-yl]methanamine] | 36.9 nM | 59% | 138 nM | – | – | –
28 | COc1ccc(-c2cccc3c2O[C@H](CN)CN3)c(C)c1 [Example 44, 1-[(2R)-8-(4-methoxy-2-methylphenyl)-3,4-dihydro-2H-1,4-benzoxazin-2-yl]methanamine] | 143 nM | – | – | – | – | –
29 | COc1ccc(-c2cccc3c2O[C@H](CN)CN3)cc1 [Example 45, 1-[(2R)-8-(4-methoxyphenyl)-3,4-dihydro-2H-1,4-benzoxazin-2-yl]methanamine] | – | – | – | 18% @1 μM | – | –
30 | COc1ccc(-c2cccc3c2O[C@H](CN)CN3)c(Cl)c1 [Example 46, 1-[(2R)-8-(2-chloro-4-methoxyphenyl)-3,4-dihydro-2H-1,4-benzoxazin-2-yl]methanamine] | 131 nM | – | – | – | – | –
31 | Cc1cc(Cl)ccc1-c1cccc2c1O[C@@H](CN)CN2 [Example 48, 1-[(2S)-8-(4-chloro-2-methylphenyl)-3,4-dihydro-2H-1,4-benzoxazin-2-yl]methanamine] | 99.3 nM | – | – | – | – | –
32 | NC[C@H]1CNc2cccc(-c3ccccc3F)c2O1 [Example 49, 1-[(2S)-8-(2-fluorophenyl)-3,4-dihydro-2H-1,4-benzoxazin-2-yl]methanamine] | 143 nM | – | – | – | – | –
33 | COc1ccc(-c2cccc3c2O[C@@H](CN)CN3)cc1 [Example 51, 1-[(2S)-8-(4-methoxyphenyl)-3,4-dihydro-2H-1,4-benzoxazin-2-yl]methanamine] | 136 nM | – | – | – | – | –
34 | CSc1ccc2c(c1)C(N1CCN(C)CC1)Cc1ccccc1S2 (centres unmarked) [Methiothepin, reference compound] | – | – | – | – | 4.6 nM | –
35 | COc1cc(CC(C)N)c(OC)cc1I (centres unmarked) [[^125I] DOI, reference compound] | – | – | – | – | – | 0.4 nM
